Test results reported in PubChem BioAssay (NCI).
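Grown in 96-well plates, cells were treated for 48 hours with each compound at five concentrations. Insufficient inhibition: endpoint recorded as highest concentration tested. The concentration for full growth arrest is given as TGI.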

How the values were obtained:
Assay in all cases: growth of human tumour cells (NCI), 48 h
[1] = tested on: 786-0 renal
[2] = tested on: A498 renal
[3] = tested on: A549 NSCLC
[4] = tested on: ACHN renal
[5] = tested on: BT-549 breast
[6] = tested on: CAKI-1 renal
[7] = tested on: CCRF-CEM leukemia
[8] = tested on: COLO 205 colon
[9] = tested on: DU-145 prostate
[10] = tested on: EKVX NSCLC
[11] = tested on: HCC-2998 colon
[12] = tested on: HCT-116 colon
[13] = tested on: HCT-15 colon
[14] = tested on: HOP-62 NSCLC
[15] = tested on: HOP-92 NSCLC
[16] = tested on: HS 578T breast
[17] = tested on: HT29 colon
[18] = tested on: IGROV1 ovarian
[19] = tested on: K-562 leukemia
[20] = tested on: KM12 colon
[21] = tested on: MALME-3M melanoma
[22] = tested on: MCF7 breast
[23] = tested on: MDA-MB-231 breast
[24] = tested on: MDA-MB-435
[25] = tested on: MDA-N
[26] = tested on: MOLT-4 leukemia
[27] = tested on: NCI-H226 lung
[28] = tested on: NCI-H23 lung
[29] = tested on: NCI-H460 lung
[30] = tested on: NCI-H522 lung
[31] = tested on: NCI/ADR-RES ovarian
[32] = tested on: OVCAR-3 ovarian
[33] = tested on: OVCAR-4 ovarian
[34] = tested on: OVCAR-5 ovarian
[35] = tested on: OVCAR-8 ovarian
[36] = tested on: PC-3 prostate
[37] = tested on: RXF 393 renal
[38] = tested on: SF-268 CNS
[39] = tested on: SF-295 CNS
[40] = tested on: SF-539 CNS
[41] = tested on: SK-MEL-28 melanoma
[42] = tested on: SK-MEL-5 melanoma
[43] = tested on: SK-OV-3 ovarian
[44] = tested on: SN12C renal
[45] = tested on: SNB-19 CNS
[46] = tested on: SNB-75 CNS
[47] = tested on: SR leukemia
[48] = tested on: SW-620 colon
[49] = tested on: T-47D breast
[50] = tested on: TK-10 renal
[51] = tested on: U251 CNS
[52] = tested on: UACC-257 melanoma
[53] = tested on: UACC-62 melanoma
[54] = tested on: UO-31 renal
[55] = tested on: HL-60(TB) leukemia
[56] = tested on: LOX IMVI melanoma
[57] = tested on: M14 melanoma
[58] = tested on: RPMI-8226 leukemia
[59] = tested on: SK-MEL-2 melanoma

O=C(CC(C(=O)c1cccs1)c1ccsc1)c1cccs1 (stereo not given)
TGI [1]: > 100 µM
TGI [2]: > 100 µM
TGI [3]: > 100 µM
TGI [4]: > 100 µM
TGI [5]: > 100 µM
TGI [6]: > 100 µM
TGI [7]: > 100 µM
TGI [8]: > 100 µM
TGI [9]: > 100 µM
TGI [10]: 76.8 µM
TGI [11]: > 100 µM
TGI [12]: > 100 µM
TGI [13]: > 100 µM
TGI [14]: > 100 µM
TGI [15]: > 100 µM
TGI [16]: > 100 µM
TGI [17]: > 100 µM
TGI [18]: > 100 µM
TGI [19]: > 100 µM
TGI [20]: > 100 µM
TGI [21]: > 100 µM
TGI [22]: > 100 µM
TGI [23]: > 100 µM
TGI [24]: 92.4 µM
TGI [25]: 80.5 µM
TGI [26]: > 100 µM
TGI [27]: > 100 µM
TGI [28]: > 100 µM
TGI [29]: > 100 µM
TGI [30]: > 100 µM
TGI [31]: > 100 µM
TGI [32]: > 100 µM
TGI [33]: > 100 µM
TGI [34]: > 100 µM
TGI [35]: > 100 µM
TGI [36]: > 100 µM
TGI [37]: > 100 µM
TGI [38]: > 100 µM
TGI [39]: > 100 µM
TGI [40]: > 100 µM
TGI [41]: > 100 µM
TGI [42]: > 100 µM
TGI [43]: > 100 µM
TGI [44]: > 100 µM
TGI [45]: > 100 µM
TGI [46]: > 100 µM
TGI [47]: > 100 µM
TGI [48]: > 100 µM
TGI [49]: > 100 µM
TGI [50]: > 100 µM
TGI [51]: > 100 µM
TGI [52]: > 100 µM
TGI [53]: > 100 µM
TGI [54]: > 100 µM

CC(C)=CCNc1ncnc2nc[nH]c12
TGI [1]: > 100 µM
TGI [2]: > 100 µM
TGI [3]: > 100 µM
TGI [4]: > 100 µM
TGI [5]: > 100 µM
TGI [6]: > 100 µM
TGI [7]: > 100 µM
TGI [8]: > 100 µM
TGI [9]: > 100 µM
TGI [10]: > 100 µM
TGI [12]: > 100 µM
TGI [13]: > 100 µM
TGI [55]: > 100 µM
TGI [14]: > 100 µM
TGI [15]: > 100 µM
TGI [16]: > 100 µM
TGI [17]: > 100 µM
TGI [18]: > 100 µM
TGI [19]: > 100 µM
TGI [20]: > 100 µM
TGI [56]: > 100 µM
TGI [57]: > 100 µM
TGI [21]: > 100 µM
TGI [22]: > 100 µM
TGI [23]: > 100 µM
TGI [24]: > 100 µM
TGI [25]: > 100 µM
TGI [26]: > 100 µM
TGI [27]: > 100 µM
TGI [28]: > 100 µM
TGI [29]: > 100 µM
TGI [30]: > 100 µM
TGI [31]: > 100 µM
TGI [32]: > 100 µM
TGI [33]: > 100 µM
TGI [34]: > 100 µM
TGI [35]: > 100 µM
TGI [36]: > 100 µM
TGI [58]: > 100 µM
TGI [37]: > 100 µM
TGI [38]: > 100 µM
TGI [39]: > 100 µM
TGI [40]: > 100 µM
TGI [59]: > 100 µM
TGI [41]: > 100 µM
TGI [42]: > 100 µM
TGI [43]: > 100 µM
TGI [44]: > 100 µM
TGI [45]: > 100 µM
TGI [46]: > 100 µM
TGI [47]: > 100 µM
TGI [48]: > 100 µM
TGI [49]: > 100 µM
TGI [50]: > 100 µM
TGI [51]: > 100 µM
TGI [52]: > 100 µM
TGI [53]: > 100 µM
TGI [54]: > 100 µM

OC1(c2ccccc2)CC2CCC(C1)N2CCCC1(c2ccc(F)cc2)OCCO1 (stereo not given)
TGI [1]: 32.4 µM
TGI [2]: > 100 µM
TGI [3]: > 100 µM
TGI [4]: > 100 µM
TGI [5]: > 100 µM
TGI [6]: > 100 µM
TGI [7]: > 100 µM
TGI [8]: > 100 µM
TGI [9]: > 100 µM
TGI [10]: > 100 µM
TGI [12]: > 100 µM
TGI [13]: > 100 µM
TGI [55]: > 100 µM
TGI [14]: > 100 µM
TGI [16]: > 100 µM
TGI [17]: > 100 µM
TGI [18]: > 100 µM
TGI [19]: > 100 µM
TGI [56]: > 100 µM
TGI [57]: 44.9 µM
TGI [21]: > 100 µM
TGI [22]: > 100 µM
TGI [23]: > 100 µM
TGI [24]: > 100 µM
TGI [25]: > 100 µM
TGI [26]: > 100 µM
TGI [28]: > 100 µM
TGI [30]: > 100 µM
TGI [31]: 29.1 µM
TGI [32]: > 100 µM
TGI [33]: > 100 µM
TGI [34]: > 100 µM
TGI [35]: 30.2 µM
TGI [36]: > 100 µM
TGI [58]: > 100 µM
TGI [37]: > 100 µM
TGI [38]: > 100 µM
TGI [39]: 10.9 µM
TGI [40]: > 100 µM
TGI [59]: > 100 µM
TGI [41]: > 100 µM
TGI [42]: 44.3 µM
TGI [43]: > 100 µM
TGI [44]: > 100 µM
TGI [46]: > 100 µM
TGI [47]: > 100 µM
TGI [48]: > 100 µM
TGI [49]: > 100 µM
TGI [50]: > 100 µM
TGI [51]: > 100 µM
TGI [52]: 73.5 µM
TGI [53]: > 100 µM
TGI [54]: > 100 µM
